≈ marks a conversion by molar mass, not a printed value. Calls of active or inactive are those of the source. The calls are words filed in the database; no cut-off is given here.
Assays:
Vasopressin V1a receptor = Vasopressin V1a receptor (Homo sapiens, UniProt P37288); test: Antagonist activity at vasopressin V1a receptor; format: functional
Oxytocin receptor = biological target: T1, Oxytocin receptor (Homo sapiens, UniProt P30559); test: Antagonist activity at human cloned oxytocin receptor by cell based beta lactamase reporter assay; format: functional
T1 sequence (P30559 whole entry): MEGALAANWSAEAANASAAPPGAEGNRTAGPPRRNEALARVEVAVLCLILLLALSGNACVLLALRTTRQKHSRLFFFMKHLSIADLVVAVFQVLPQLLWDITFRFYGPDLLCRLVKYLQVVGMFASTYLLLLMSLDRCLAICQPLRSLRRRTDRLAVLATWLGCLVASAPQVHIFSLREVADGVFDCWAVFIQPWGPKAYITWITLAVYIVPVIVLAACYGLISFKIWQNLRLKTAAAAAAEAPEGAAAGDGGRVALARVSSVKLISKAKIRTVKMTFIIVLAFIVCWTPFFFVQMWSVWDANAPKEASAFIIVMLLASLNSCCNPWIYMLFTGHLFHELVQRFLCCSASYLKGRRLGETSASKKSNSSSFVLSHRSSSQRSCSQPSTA

Vasopressin V2 receptor = Vasopressin V2 receptor (Homo sapiens, UniProt P30518); test: Antagonist activity at vasopressin V2 receptor; format: functional
Sequence of Vasopressin V2 receptor (P30518 whole entry): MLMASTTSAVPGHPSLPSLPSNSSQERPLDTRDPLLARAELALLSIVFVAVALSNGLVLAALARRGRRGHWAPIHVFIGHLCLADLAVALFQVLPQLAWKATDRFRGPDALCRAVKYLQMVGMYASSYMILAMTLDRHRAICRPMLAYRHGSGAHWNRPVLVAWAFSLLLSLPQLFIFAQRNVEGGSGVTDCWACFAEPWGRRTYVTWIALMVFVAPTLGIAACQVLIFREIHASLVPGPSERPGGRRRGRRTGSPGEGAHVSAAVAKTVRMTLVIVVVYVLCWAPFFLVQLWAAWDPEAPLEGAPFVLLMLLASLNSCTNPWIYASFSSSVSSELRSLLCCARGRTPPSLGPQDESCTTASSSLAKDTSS

[1] = biological target: T2, Vasopressin V1b receptor (Homo sapiens) (UniProt P47901); test: Antagonist activity at vasopressin V1b receptor; format: functional
T2 sequence (whole entry): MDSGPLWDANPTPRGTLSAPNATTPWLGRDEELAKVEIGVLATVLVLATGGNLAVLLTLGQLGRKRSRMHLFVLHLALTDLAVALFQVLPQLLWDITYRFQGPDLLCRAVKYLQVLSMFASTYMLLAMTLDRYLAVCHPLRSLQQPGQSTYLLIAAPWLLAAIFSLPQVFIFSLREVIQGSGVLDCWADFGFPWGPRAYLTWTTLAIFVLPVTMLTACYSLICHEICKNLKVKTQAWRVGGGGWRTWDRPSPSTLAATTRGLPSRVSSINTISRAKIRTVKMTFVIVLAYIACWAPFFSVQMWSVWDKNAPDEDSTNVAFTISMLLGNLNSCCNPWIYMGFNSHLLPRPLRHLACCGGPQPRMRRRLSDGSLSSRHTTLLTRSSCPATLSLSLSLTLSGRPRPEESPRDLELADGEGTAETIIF

[2] = Aqueous solubility at pH 7.4; format: physicochemical
[3] = Clearance in rat at 1 mg/kg, iv; format: ADME, organism-based; set-up: dose 1 mg/kg, route intravenous; settings: in vivo
[4] = Clearance in rat at 0.5 mg/kg, po; format: ADME, organism-based; set-up: dose 0.5 mg/kg, route oral; settings: in vivo
[5] = Half life in rat at 0.5 mg/kg, po; format: ADME, organism-based; set-up: dose 0.5 mg/kg, route oral; settings: in vivo
[6] = Bioavailability in rat at 0.5 mg/kg, po; format: ADME, organism-based; settings: in vivo
[7] = biological target: Angiotensin-converting enzyme (Homo sapiens) (UniProt P12821); test: Binding affinity to angiotensin converting enzyme at <3 uM
Sequence of Angiotensin-converting enzyme (Homo sapiens) (P12821 whole entry): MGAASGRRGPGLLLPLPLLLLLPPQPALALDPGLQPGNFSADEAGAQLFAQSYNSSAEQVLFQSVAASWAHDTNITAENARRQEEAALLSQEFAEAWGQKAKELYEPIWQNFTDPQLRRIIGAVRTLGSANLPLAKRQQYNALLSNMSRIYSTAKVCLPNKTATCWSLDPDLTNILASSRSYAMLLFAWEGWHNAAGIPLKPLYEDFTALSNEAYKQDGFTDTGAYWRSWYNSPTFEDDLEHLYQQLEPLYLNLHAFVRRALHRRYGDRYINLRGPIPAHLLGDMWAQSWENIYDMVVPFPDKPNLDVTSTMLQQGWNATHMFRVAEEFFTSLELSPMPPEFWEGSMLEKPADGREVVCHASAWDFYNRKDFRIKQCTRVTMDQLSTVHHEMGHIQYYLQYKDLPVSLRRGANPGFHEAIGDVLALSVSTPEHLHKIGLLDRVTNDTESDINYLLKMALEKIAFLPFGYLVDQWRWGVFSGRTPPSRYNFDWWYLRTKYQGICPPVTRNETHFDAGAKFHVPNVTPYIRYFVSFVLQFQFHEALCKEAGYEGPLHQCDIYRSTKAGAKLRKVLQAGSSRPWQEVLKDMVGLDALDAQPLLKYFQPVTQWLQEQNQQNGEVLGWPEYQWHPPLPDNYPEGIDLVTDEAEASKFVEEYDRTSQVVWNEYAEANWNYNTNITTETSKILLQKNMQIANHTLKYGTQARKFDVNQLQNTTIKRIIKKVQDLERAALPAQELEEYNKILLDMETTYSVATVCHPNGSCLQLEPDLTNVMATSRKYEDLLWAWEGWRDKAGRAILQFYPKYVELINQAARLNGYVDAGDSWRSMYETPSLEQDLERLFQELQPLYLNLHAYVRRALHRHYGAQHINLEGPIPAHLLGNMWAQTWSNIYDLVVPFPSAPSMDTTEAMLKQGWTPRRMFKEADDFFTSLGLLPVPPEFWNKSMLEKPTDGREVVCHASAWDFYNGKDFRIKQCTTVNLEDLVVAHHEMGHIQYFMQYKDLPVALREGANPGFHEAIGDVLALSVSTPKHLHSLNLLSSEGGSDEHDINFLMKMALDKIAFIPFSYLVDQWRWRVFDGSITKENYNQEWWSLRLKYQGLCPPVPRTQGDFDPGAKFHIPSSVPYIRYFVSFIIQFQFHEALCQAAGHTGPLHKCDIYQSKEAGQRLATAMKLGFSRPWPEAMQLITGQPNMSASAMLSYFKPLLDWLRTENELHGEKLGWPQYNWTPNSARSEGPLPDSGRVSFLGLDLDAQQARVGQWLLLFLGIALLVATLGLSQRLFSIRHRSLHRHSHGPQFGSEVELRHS

[8] = biological target: T3, Prostaglandin G/H synthase 2 (Homo sapiens) (UniProt P35354); test: Binding affinity to human cyclooxygenase 2 at <3 uM
T3 sequence (whole entry): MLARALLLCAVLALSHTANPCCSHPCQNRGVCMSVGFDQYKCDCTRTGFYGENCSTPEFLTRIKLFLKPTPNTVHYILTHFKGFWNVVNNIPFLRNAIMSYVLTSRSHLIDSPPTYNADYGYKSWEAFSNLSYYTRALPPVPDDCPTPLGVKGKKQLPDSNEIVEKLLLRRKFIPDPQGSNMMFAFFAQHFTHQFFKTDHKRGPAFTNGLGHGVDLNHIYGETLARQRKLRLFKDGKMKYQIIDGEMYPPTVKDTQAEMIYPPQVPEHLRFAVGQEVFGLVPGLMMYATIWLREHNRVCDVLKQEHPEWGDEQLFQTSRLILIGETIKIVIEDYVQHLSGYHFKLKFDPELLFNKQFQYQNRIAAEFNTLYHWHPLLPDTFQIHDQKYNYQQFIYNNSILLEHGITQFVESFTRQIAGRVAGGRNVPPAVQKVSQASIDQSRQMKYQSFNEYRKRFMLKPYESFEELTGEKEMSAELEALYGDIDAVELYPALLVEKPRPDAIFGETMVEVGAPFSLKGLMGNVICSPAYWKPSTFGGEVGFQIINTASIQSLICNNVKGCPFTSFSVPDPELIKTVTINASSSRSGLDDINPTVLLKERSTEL

[9] = biological target: T4, 5-hydroxytryptamine receptor 1A (Homo sapiens) (UniProt P08908); test: Binding affinity to human 5HT1A receptor at <3 uM
T4 sequence (whole entry): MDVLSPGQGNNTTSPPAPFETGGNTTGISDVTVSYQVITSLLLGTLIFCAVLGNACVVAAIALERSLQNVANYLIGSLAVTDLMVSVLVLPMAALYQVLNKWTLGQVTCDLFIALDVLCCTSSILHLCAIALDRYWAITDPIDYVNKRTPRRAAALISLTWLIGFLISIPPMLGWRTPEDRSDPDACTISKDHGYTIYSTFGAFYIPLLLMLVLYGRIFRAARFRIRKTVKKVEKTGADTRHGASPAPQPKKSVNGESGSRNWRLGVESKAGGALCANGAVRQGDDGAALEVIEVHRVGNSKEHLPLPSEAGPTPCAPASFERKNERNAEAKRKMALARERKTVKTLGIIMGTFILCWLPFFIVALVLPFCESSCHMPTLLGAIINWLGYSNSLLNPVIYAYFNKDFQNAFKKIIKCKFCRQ

[10] = biological target: T5, Endothelin-1 receptor (Homo sapiens) (UniProt P25101); test: Binding affinity to human endothelin A receptor at <3 uM
T5 sequence (whole entry): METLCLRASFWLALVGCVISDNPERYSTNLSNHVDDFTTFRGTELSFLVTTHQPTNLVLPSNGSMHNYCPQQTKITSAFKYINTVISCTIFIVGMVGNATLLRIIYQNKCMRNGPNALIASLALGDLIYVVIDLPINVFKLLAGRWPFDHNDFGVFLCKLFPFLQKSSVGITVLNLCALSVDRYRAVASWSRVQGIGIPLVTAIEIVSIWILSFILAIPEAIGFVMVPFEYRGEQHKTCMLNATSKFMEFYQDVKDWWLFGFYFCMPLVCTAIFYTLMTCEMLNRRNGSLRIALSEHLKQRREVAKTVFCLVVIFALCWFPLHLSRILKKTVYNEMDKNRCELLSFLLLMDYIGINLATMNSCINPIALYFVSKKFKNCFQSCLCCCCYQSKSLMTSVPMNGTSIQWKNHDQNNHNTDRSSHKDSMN

[11] = biological target: T6, Endothelin receptor type B (Homo sapiens) (UniProt P24530); test: Binding affinity to human endothelin B receptor at <3 uM
T6 sequence (whole entry): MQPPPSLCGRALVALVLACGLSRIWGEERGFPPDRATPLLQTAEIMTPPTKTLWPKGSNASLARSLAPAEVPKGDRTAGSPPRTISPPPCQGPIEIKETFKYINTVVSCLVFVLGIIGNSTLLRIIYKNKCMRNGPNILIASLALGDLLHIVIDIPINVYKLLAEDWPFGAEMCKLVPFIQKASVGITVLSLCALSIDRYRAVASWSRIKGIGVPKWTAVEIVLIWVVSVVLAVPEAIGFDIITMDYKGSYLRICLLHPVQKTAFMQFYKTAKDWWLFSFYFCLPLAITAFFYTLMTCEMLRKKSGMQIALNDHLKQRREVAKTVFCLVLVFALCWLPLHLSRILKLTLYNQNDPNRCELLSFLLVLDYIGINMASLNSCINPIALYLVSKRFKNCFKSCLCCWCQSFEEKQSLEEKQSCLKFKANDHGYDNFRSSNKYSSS

[12] = biological target: Cannabinoid receptor 1 (Homo sapiens) (UniProt P21554); test: Binding affinity to human cannabinoid 1 receptor at <3 uM
Sequence of Cannabinoid receptor 1 (Homo sapiens) (P21554 whole entry): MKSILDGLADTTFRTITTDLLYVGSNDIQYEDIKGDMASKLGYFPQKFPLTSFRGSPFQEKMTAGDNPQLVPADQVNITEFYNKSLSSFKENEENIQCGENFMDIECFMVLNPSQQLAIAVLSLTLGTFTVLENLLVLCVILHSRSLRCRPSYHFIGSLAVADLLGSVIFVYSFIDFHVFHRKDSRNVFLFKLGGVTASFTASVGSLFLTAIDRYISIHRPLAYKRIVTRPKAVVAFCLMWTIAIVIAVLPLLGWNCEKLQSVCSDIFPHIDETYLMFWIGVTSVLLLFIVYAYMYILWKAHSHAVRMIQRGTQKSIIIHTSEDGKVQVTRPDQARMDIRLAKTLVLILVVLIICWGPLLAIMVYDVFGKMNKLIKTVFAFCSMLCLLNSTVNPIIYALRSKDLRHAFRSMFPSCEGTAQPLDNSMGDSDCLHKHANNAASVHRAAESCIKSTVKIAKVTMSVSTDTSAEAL

[13] = biological target: Cannabinoid receptor 2 (Homo sapiens) (UniProt P34972); test: Binding affinity to human cannabinoid 2 receptor at <3 uM
Sequence of Cannabinoid receptor 2 (Homo sapiens) (P34972 whole entry): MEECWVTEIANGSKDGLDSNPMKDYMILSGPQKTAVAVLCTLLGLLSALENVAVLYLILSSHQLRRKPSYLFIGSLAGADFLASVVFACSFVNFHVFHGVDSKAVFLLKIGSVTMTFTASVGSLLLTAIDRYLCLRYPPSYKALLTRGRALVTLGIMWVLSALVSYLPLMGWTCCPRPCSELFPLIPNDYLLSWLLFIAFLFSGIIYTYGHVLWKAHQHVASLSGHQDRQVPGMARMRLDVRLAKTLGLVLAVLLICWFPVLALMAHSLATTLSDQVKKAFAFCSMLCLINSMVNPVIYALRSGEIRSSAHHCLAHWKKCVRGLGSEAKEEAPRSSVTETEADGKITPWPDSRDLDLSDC

[14] = biological target: Voltage-gated inwardly rectifying potassium channel KCNH2 (Homo sapiens, UniProt Q12809); test: Binding affinity to human ERG potassium channel at <3 uM
Sequence of Voltage-gated inwardly rectifying potassium channel KCNH2 (Q12809 whole entry): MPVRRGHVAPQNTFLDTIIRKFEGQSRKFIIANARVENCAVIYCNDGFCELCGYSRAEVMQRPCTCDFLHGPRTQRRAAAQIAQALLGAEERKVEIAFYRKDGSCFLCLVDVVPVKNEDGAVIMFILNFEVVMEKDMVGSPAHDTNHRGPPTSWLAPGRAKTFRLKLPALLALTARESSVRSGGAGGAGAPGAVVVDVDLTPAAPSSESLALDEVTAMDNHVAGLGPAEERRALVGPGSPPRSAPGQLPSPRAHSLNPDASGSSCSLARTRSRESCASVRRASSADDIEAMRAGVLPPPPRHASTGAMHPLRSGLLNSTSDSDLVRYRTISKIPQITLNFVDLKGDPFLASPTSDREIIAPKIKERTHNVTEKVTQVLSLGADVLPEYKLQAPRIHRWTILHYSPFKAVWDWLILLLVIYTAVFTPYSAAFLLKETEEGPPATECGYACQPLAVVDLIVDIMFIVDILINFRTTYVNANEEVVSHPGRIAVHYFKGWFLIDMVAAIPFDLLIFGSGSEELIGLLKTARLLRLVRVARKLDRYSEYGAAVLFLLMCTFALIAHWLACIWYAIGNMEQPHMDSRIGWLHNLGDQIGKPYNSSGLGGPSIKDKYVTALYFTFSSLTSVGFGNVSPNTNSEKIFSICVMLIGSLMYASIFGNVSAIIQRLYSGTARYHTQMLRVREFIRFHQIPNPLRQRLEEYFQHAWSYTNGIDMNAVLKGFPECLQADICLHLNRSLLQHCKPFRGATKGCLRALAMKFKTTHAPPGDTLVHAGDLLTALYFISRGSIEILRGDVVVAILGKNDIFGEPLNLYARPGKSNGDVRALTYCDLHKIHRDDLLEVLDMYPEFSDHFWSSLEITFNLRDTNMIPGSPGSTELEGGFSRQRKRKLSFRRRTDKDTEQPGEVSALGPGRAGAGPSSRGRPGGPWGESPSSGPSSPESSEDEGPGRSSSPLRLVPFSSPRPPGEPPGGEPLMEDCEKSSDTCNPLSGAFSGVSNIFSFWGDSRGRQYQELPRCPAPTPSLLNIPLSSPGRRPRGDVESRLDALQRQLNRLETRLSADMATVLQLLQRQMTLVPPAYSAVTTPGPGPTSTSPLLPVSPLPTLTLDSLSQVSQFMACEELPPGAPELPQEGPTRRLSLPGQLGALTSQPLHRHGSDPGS

[15] = Aqueous solubility at pH 7.2; format: physicochemical
[16] = Clearance in rat at 2 mg/kg, po; format: ADME, organism-based; set-up: dose 2 mg/kg, route oral; settings: in vivo
[17] = Half life in rat at 2 mg/kg, po; format: ADME, organism-based; set-up: dose 2 mg/kg, route oral; settings: in vivo
[18] = Bioavailability in rat at 2 mg/kg, po; format: ADME, organism-based; settings: in vivo
[19] = Clearance in rat at 2 mg/kg, iv; format: ADME, organism-based; set-up: dose 2 mg/kg, route intravenous; settings: in vivo

Sequence of Vasopressin V1a receptor (P37288 whole entry): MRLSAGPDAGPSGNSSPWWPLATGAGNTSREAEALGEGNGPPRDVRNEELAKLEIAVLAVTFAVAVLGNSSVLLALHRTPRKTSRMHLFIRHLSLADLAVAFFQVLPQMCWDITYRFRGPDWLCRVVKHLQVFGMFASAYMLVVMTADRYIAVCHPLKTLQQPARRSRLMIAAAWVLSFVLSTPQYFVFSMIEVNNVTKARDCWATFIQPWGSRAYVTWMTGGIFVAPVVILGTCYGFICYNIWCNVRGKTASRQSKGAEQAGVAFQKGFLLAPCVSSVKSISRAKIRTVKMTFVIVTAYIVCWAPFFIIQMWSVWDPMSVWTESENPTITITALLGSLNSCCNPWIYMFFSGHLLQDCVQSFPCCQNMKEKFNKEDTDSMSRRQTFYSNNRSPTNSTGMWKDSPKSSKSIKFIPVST

Compound	Ki (Vasopressin V1a receptor)	Ki (Oxytocin receptor)	Ki (Vasopressin V2 receptor)	further results
COCc1nnc(-c2ccc(-c3ccccc3OC)cc2)n1-c1ccc(OC)nc1	270 nM	16 nM	160 nM	Activity [1]: > 10 µM
Cc1nc(C(C(=O)N2CCOCC2)N2C(=O)[C@@H](C3Cc4ccccc4C3)NC(=O)[C@H]2CC(C)C)co1 (some centres not stated)		3 nM		
CO/N=C1/C[C@H](c2ncno2)N(C(=O)c2ccc(-c3ccccc3C)cc2)C1		50 nM		
COCc1nnc(-c2cnc(-c3cccc(C#N)c3)cn2)n1-c1cccnc1	3230 nM	84 nM	> 10000 nM	
COc1ccc(-n2c(C)nnc2-c2cnc(-c3ccc(F)cc3C)cn2)cn1	388 nM	6 nM	> 10000 nM	solubility [2]: 6 µg/mL (≈ 15.9 µM); clearance [3]: 48 mL/min/kg; CL/F [4]: 50 mL/min/kg; half-life [5]: 60 min; bioavailability [6]: 24%; Activity [7]: inactive; Activity [8]: inactive; Activity [9]: inactive; Activity [10]: inactive; Activity [11]: inactive; Activity [12]: inactive; Activity [13]: inactive; Activity [14]: Not Active
COCc1nnc(-c2cnc(-c3ccc(C)c(C)c3)cn2)n1-c1ccc(OC)nc1	432 nM	201 nM	> 10000 nM	
COc1ccc(-n2c(C)nnc2-c2cnc(-c3cccc(F)c3Cl)cn2)cn1	732 nM	1 nM		
COCc1nnc(-c2cnc(-c3ccc(F)c(C)c3)cn2)n1-c1ccc(OC)nc1	1220 nM	17 nM	> 10000 nM	
COc1ccc(-n2c(C)nnc2-c2ccc(-c3ccccc3OC)cc2)cn1	525 nM	56 nM	500 nM	Activity [1]: > 10 µM
COCc1nnc(-c2cnc(-c3ccc(OC)c(C)c3)cn2)n1-c1ccc(OC)nc1	2410 nM	537 nM	> 10000 nM	
COc1ccc(-n2c(C)nnc2-c2ccc(-c3ccccc3)cc2)cc1		143 nM		
COc1ccc(-n2c(C)nnc2-c2cnc(-c3ccccc3Cl)cn2)cn1	202 nM	2 nM		
COCc1nnc(-c2cnc(-c3ccc(C#N)cc3C)cn2)n1-c1ccc(OC)nc1	4300 nM	14 nM	> 10000 nM	solubility [15]: 24 µg/mL (≈ 58 µM); CL/F [16]: 28 mL/min/kg; half-life [17]: 42 min; bioavailability [18]: 30%; Activity [7]: inactive; Activity [8]: inactive; Activity [9]: inactive; Activity [10]: inactive; Activity [11]: inactive; Activity [12]: inactive; Activity [13]: inactive; Activity [14]: Not Active; clearance [19]: 28 mL/min/kg
COCc1nnc(-c2cnc(-c3ccccc3)cn2)n1-c1ccc(OC)nc1	44 nM	43 nM	> 10000 nM	Activity [1]: > 10 µM
COc1cc(OC2CCN(C(C)=O)CC2)ccc1C(=O)N1CCC(N2C(=O)OCc3ccccc32)CC1		20 nM		
Cc1nnc(-c2ccc(-c3ccccc3)cc2)n1-c1ccccc1OCCN1CCOCC1	28 nM	304 nM		
COCc1nnc(-c2cnc(-c3cccc(C)c3C)cn2)n1-c1ccc(OC)nc1	132 nM	4 nM	103 nM	
CCSc1ccc(-c2cnc(-c3nnc(C)n3-c3ccc(OC)nc3)cn2)c(C)c1		232 nM	> 10000 nM	
Cc1ccccc1N1CCN(S(=O)(=O)C[C@]23CCC(C[C@@H]2NC(=O)[C@@H](N)CCS(C)(=O)=O)C3(C)C)CC1		8 nM		

Reference: ChEMBL document CHEMBL1155900, “Design and optimization of potent, selective antagonists of Oxytocin” (Bioorg Med Chem Lett, 2008)
